Laboratory results: article PMC9822434, “Estradiol-Based Salicylaldehyde (Thio)Semicarbazones and Their Copper Complexes with Anticancer, Antibacterial and Antioxidant Activities” (Molecules, 2022)
Values after ≈ are worked out from the molar mass of the structure shown. Like-named read-outs stand apart in the source and are kept apart here. Blank lines part the entries; values can stand above or below the compound they belong to.

Tests used:
[1] = DPPH free radical scavenging assay; conditions: for % Scavenging Effect: DPPH:compound = 1:1 ratio after 30 min, ethanol; for IC50: in ethanol, T = 25 °C, cDPPH = 50 µM, ccompound = 5−50 µM
Method: The DPPH (Sigma-Aldrich) free radical scavenging capacity was studied at 25.0 ± 0.1 °C on an Agilent Cary 3500 spectrophotometer with tightly closed tandem cuvette according to our approach with some modifications. The stock solution of DPPH (100 µM) was prepared in ethanol, and 0.5 mL of this solution was added to one pocket of the cuvette and 0.5 mL of the tested compound in different concentrations in ethanol was added to another. The final concentration of the studied compounds was in the range 5–50 µM, where for DPPH concentration, it was always 50 µM. A standard compound Trolox (Sigma-Aldrich) was used as a positive control. The percentage of the antioxidant activity (AA), IC50 values (the concentration of compound at which it reduced 50% of DPPH) and Trolox equivalent antioxidant capacity (TEAC) were calculated.

[2] = cited from earlier work
[3] = type: physicochemical; conditions: for pCu5.0: calculated at pH 5.0, cCu(II) = 20 µM; for pCu5.0 / pCu6.0 / pCu7.4: cligand = 20 µM; for pCu6.0: estimated at pH 6.0, cCu(II) = 20 µM; for logβ [CuLH−1] / logβ [CuL]+: Cu(II) complex of the named ligand, 30% (v/v) DMSO/H2O, T = 25.0 °C, I = 0.1 M (KCl); for pCu7.4: estimated at pH 7.4, cCu(II) = 20 µM
Method: (§1) An Orion 710A pH-meter equipped with a Metrohm combined electrode (type 6.0234.100) and a Metrohm 665 Dosimat burette were used for the UV–vis titrations at 25.0 ± 0.1 °C. Ionic strength of 0.10 M (KCl) was used to keep the activity coefficients constant. The titrations were performed with carbonate-free KOH solution of known concentration (0.10 M) with 30% (v/v) DMSO content. […] The average water ionization constant (pKw) is 14.54 ± 0.05 in the 30% (v/v) DMSO/H2O mixture. Argon was always passed over the solutions during the titrations. An Agilent Cary 8454 diode array spectrophotometer was used to record the UV–vis spectra at an interval of 200–800 nm. The path length was 2 cm. Spectrophotometric titrations were performed using a 0.1 M KOH titrant solution with 30% (v/v) DMSO on samples with 30% (v/v) DMSO containing HCl, KCl and the ligand at 20 μM concentration in the pH range 2.0–12.5 in the absence or in the presence of 1 or 0.5 equiv. Cu(II) ions. Proton dissociation constants (Ka) of the TSC ligands, the overall stability constants (β) of the Cu(II) complexes and the UV–vis spectra of the individual species were calculated by the computer program PSEQUAD [41] as was done in our previous works.

[4] = direct redox reaction of the Cu(II) complexes with GSH (UV–vis, anaerobic); type: physicochemical; conditions: Cu(II) complex (25 µM) of the named ligand with GSH (1.25 mM), pH 7.4, anaerobic, 30% (v/v) DMSO/H2O, 25.0 °C
Method: The redox reaction of the Cu(II) complexes with GSH and ascorbic acid was studied at 25.0 ± 0.1 °C, at pH 7.40 (10 mM HEPES with 0.1 M KCl) on an Agilent Cary 8454 diode array spectrophotometer using a special, tightly closed tandem cuvette (Hellma Tandem Cell, 238-QS). The complex and the reducing agent were separated until the reaction was triggered. Both isolated pockets of the tandem cuvette were completely deoxygenated by bubbling argon for 10 min before mixing the reactants. Spectra were recorded before and then immediately after the mixing, and changes were followed till no further absorbance change was observed. The stock solutions of the reducing agents and the complexes were freshly prepared every day.
During the calculations, the absorbance (A)−time (t) curves were fitted and analyzed at the λmax of the complex. (A0 − Afinal) × e ^(−a×t) + Afinal equation was used where A0, Afinal and a parameters were refined and accepted at the minimal value of the weighted sum of squared residuals (difference between the measured and calculated absorbance values) at the given wavelength. Then observed rate constants (kobs) of the redox reaction were obtained from the data points of the simulated absorbance–time curves as the slope of the ln(A/A0) versus t plots.

[5] = test system: HCT-116 colon cancer cell line; set-up: method as in doi:10.1039/D0NJ01070G, PMID 34453218, PMID 33951554; conditions: cited from earlier work
[6] = cited from earlier work; for logβ [CuLH−1] / logβ [CuL]+: 30% (v/v) DMSO/H2O, T = 25.0 °C, I = 0.1 M (KCl); for pCu7.4: pH 7.4, cCu(II) = 20 µM, cligand = 20 µM
[7] = physchem; type: physicochemical
Method: as §1

[8] = test system: E. faecalis ATCC 29212; assay: MIC determination; type: cell-based, Enterococcus faecalis; conditions: Gram-positive E. faecalis ATCC 29212, Mueller Hinton Broth
Method: (§2) Klebsiella pneumoniae (ATCC 49619), Escherichia coli (ATCC 25922), Staphylococcus aureus (ATCC 25928) and Enterococcus faecalis (ATCC 29212) strains were used as Gram-negative and Gram-positive bacterial cultures. The stock solutions of the tested compounds (dissolved in 90% (v/v) DMSO/H2O at 10 mM concentration) were diluted in 100 μL of Mueller Hinton Broth, and then two-fold serial dilutions were performed. As a starting point, 100 μM concentration of the compounds was used. Then, 10^−4 dilution of an overnight bacterial culture in 100 μL of medium was added to each well, with the exception of the medium control wells. Minimum inhibitory concentration (MIC) values of compounds were determined according to our previous work.

[9] = test system: S. aureus ATCC 25928; assay: MIC determination; type: cell-based, Staphylococcus aureus; conditions: Gram-positive S. aureus ATCC 25928, Mueller Hinton Broth
Method: as §2

[10] = test system: A549; assay: MTT cytotoxicity assay; type: cell-based, human; conditions: for IC50: 24 h incubation time; for effect on cell viability (in words): up to 20 µM, 24 h
Method: (§3) To test the biological effects of the Cu(II) complexes and the ligands on human cancer cells, DU-145 prostate, A549 lung, and MCF-7 breast adenocarcinoma cells, as well as the multidrug-resistant MCF-7 KCR breast cancer cells were utilized. All the cell lines were maintained in RPMI-1640 media (Biosera, Nuaille, France) complemented with 10% fetal bovine serum (FBS), 2 mM L-glutamine, 0.01% streptomycin and 0.005% penicillin, (Biosera, Nuaille, France) and were cultured under standard conditions in a 37 °C incubator at 5% CO2 and 95% humidity. The cell lines were originally obtained from ATCC.
(§4) The effect of the complexes and of their ligands alone on the viability (on the metabolic activity) of human cancer cells was assessed by MTT assay. The tested compounds were dissolved in 90% (v/v) DMSO/H2O at 10 mM concentration. Equimolar solutions of the ligand CuCl2 salt were used for the cytotoxicity assays. The metal salts without ligands were also tested. For this, 1 × 10^4 cells/well were seeded into 96-well plates and left to grow overnight. On the following day, cells were exposed to increasing concentrations of each compound (0; 2.5; 5; 10; 15; 20 µM). After a 24 h incubation, cells were washed with PBS buffer and then incubated with 0.5 mg/mL MTT (Sigma-Aldrich, St Louis, Missouri, MO, USA) for 1 h at 37 °C. The formazan crystals were solubilized in DMSO (Molar Chemicals, Halásztelek, Hungary), and the absorbance of samples was determined at 570 nm using a Synergy HTX plate reader (BioTek, Winooski, Vermont, VT, USA). Absorption corresponding to the untreated control samples was considered as 100%.

[11] = test system: DU-145; assay: MTT cytotoxicity assay; type: cell-based, human; conditions: DU-145, MTT; for effect on cell viability (in words): up to 20 µM, 24 h; for IC50: 24 h incubation time
Method: as §3, §4

[12] = test system: MCF-7 KCR; assay: MTT cytotoxicity assay; type: cell-based, human; conditions: for effect on cell viability (in words): up to 20 µM, 24 h
Method: as §3, §4

[13] = test system: MCF-7; assay: MTT cytotoxicity assay; type: cell-based, human; conditions: MCF-7, MTT; for IC50: 24 h incubation time; for effect on cell viability (in words): up to 20 µM, 24 h
Method: as §3, §4

[14] = test system: A549, MCF-7, MCF-7 KCR and DU-145 cells; assay: γH2AX immunostaining (DNA double-strand breaks); type: cell-based, human; conditions: 20 µM, 3 h
Method: In order to determine the degree of DNA damage induced by the treatments, DNA double-strand breaks were visualized by γH2AX immunostaining. For this, 1 × 10^5 cells/well were seeded onto coverslips in 24-well plates. […] Then, cells were fixed with 4% formaldehyde (Molar Chemicals, Halásztelek, Hungary), permeabilized with 0.3% Triton-X-100 (Calbiochem, Merck Millipore, Darmstadt, Germany) and were blocked using 5% bovine serum albumin (BSA) (Sigma-Aldrich, St. Louis, MO, USA). Then, the samples were incubated with anti-γH2AX antibody (Thermo Fisher Scientific, Waltham, MA, USA) in 1:300 dilution followed by Alexa 488 fluorophore-conjugated goat anti-mouse secondary antibody (Abcam, Cambridge, UK) in 1:600 dilution. The fluorescence intensity of the stained samples was detected by an Olympus FV10i confocal microscope.

[15] = Cu(II) complex (25 µM) with GSH (1.25 mM), pH 7.4, anaerobic; cited from earlier work

Compound: NC(=S)N/N=C/c1ccccc1O [STSC, salicylaldehyde TSC, reference compound]
TEAC (Trolox equivalent antioxidant capacity) ([1]; DPPH assay in ethanol, 25 °C): 0.6
% Scavenging Effect ([1]; 25 °C): 23.4%
IC50 [1]: 19 µM
pKa ([2]; salicylaldehyde TSC): 8.84

Compound: NC(=O)N/N=C/c1ccccc1O [SSC]
pKa ([2]; salicylaldehyde SC): 9.30

Compound: C[C@]12CC[C@@H]3c4cc(C=NNC(N)=O)c(O)cc4CC[C@H]3[C@@H]1CCC2O (stereo partly drawn) [estradiol-SC, 2-[(3,17 Dihydroxy-estra-1,3,5(10)-triene-2-yl)methylene]Hydrazine-1-carboxamide]
pKa [7]: 10.02 ± 0.03
pKa [CuL]+ [3]: 6.48
logβ [CuLH−1] [3]: 5.16 ± 0.03
logβ [CuL]+ [3]: 11.63 ± 0.03
pCu5.0 [3]: 5.7
pCu6.0 [3]: 6.3
pCu7.4 [3]: 7.8
kobs [4]: fast reaction
% Scavenging Effect ([1]; 25 °C): 6.5%
IC50 [1]: > 50 µM
MIC ([8]; Enterococcus faecalis, ATCC29212): > 100 µM
MIC [9]: 50 µM (≈ 17.9 µg/mL)
MIC ([9]; Staphylococcus aureus, ATCC25928): 50 µM (≈ 17.9 µg/mL)
IC50 ([10]; Homo sapiens): > 20 µM
effect on cell viability (in words) [10]: only slightly toxic
effect on cell viability (in words) [11]: neither the estradiol-SC nor the Cu(II)-estradiol-SC complex exhibit any harmful effect
IC50 ([11]; Homo sapiens): > 20 µM
IC50 ([12]; Homo sapiens, MCF7, 24 h incubation time): > 20 µM
effect on cell viability (in words) [12]: only slightly toxic
IC50 ([13]; Homo sapiens, MCF7): > 20 µM
effect on cell viability (in words) [13]: neither the estradiol-SC nor the Cu(II)-estradiol-SC complex exhibit any harmful effect
melting point: 238 °C

More lines, main results first:

pCu5.0 [3]: 7.7
pCu6.0 [3]: 9.2
Compound: CNC(=S)NN=Cc1cc2c(cc1O)CCC1C2CCC2(C)C(=O)CCC12 (stereo not drawn) [Me-estrone-TSC]
kobs [4]: 0.05 ^4 min^−1
IC50 [5]: 25 µM
logβ [CuLH−1] [6]: 9.66 ^3
logβ [CuL]+ [6]: 13.64 ^3
pCu7.4 [6]: 11.9 ^3

pKa [7]: 9.02 ± 0.03 ^4
pKa [CuL]+ [3]: 3.92 ^4
logβ [CuLH−1] [3]: 9.44 ± 0.07 ^4
logβ [CuL]+ [3]: 13.36 ± 0.08 ^4
pCu5.0 [3]: 8.0
pCu6.0 [3]: 9.7
pCu7.4 [3]: 12.5 ^4
Compound: CN(C)C(=S)NN=Cc1cc2c(cc1O)CCC1C2CCC2(C)C(=O)CCC12 (stereo not drawn) [Me2-estrone-TSC, reference compound]
kobs [4]: 0.05 ^4 min^−1
IC50 [5]: 21 µM

MIC [8]: >100 µM
MIC [9]: >100 µM
Compound: [Cl][Cu][Cl] [CuCl2, reference compound]
IC50 [10]: > 20 µM
effect on cell viability (in words) [10]: No toxic effect
IC50 [11]: > 20 µM
effect on cell viability (in words) [11]: No toxic effect
IC50 ([12]; 24 h incubation time): > 20 µM
effect on cell viability (in words) [12]: No toxic effect
IC50 [13]: > 20 µM
effect on cell viability (in words) [13]: No toxic effect
DNA double-strand breaks (γH2AX) vs untreated control cells [14]: None of these treatments caused a higher degree of DNA damage

pCu5.0 [3]: 5.8
pCu6.0 [3]: 6.3
Compound: CC12CCC3c4cc(C=NNC(N)=O)c(O)cc4CCC3C1CCC2=O (stereo not drawn) [estrone-SC]
logβ [CuLH−1] [6]: 4.82 ^1
logβ [CuL]+ [6]: 11.26 ^1
pCu7.4 [6]: 7.5 ^1
kobs [15]: fast reaction ^1
